Measured values from patent publication US11926615B1, “2-alkoxy[4,3:6,4-terpyridine]-3-carbonitriles as antimicrobial compounds” (KING FAISAL UNIVERSITY, priority 2023, dated 2024).

How the values were obtained:
Format in all cases: cell-based
[1] = tested on: Chrysosporium keratinophilum; assay: Agar plate disc-diffusion, antifungal inhibition zone; conditions: DMSO control zone subtracted; for inhibition zone, Chrysosporium keratinophilum, A: A = concentration of comp. = 10,000 μL; for inhibition zone, Chrysosporium keratinophilum, B: B = concentration of comp. = 30.000 μL; for inhibition zone, Chrysosporium keratinophilum, C: C = concentration of comp. = 50,000 μL
Description: (§1) The agar plate disc-diffusion method was applied. Sterilized filter papers (6 mm in diameter) were wetted with 10 μL of a solution of 2-ethoxy[4,3:6,4-terpyridine]-3-carbonitrile (4) and 2-methoxy[4,3:6,4-terpyridine]-3-carbonitrile (5) to be tested, containing […], and the discs were allowed to air dry. The discs were then placed onto the surface of agar plates (nutrient agar for bacteria and Sabouraud's dextrose agar for fungi) seeded with the test organism. Each plate contained 15 mL of the agar medium, previously seeded with 0.2 mL of the broth culture of each organism pregrown for 18 hours. The plates were incubated at 37° C. for 48 h, and 72 h for fungi. The inhibition zones were measured in mm. Discs impregnated with DMSO were used as a control, and its inhibition zone was subtracted from the tested compound actual inhibition zone.

Aspergillus flavus = assay: as above; conditions: DMSO control zone subtracted; for inhibition zone, Aspergillus flavus, A: A = concentration of comp. = 10,000 μL; for inhibition zone, Aspergillus flavus, B: B = concentration of comp. = 30.000 μL; for inhibition zone, Aspergillus flavus, C: C = concentration of comp. = 50,000 μL
Description: as §1

Pseudomonas aeruginosa = assay: Agar plate disc-diffusion, antibacterial inhibition zone; conditions: DMSO control zone subtracted; for inhibition zone, Pseudomonas aeruginosa, A: A = concentration of comp. = 10,000 μL; for inhibition zone, Pseudomonas aeruginosa, B: B = concentration of comp. = 30.000 μL; for inhibition zone, Pseudomonas aeruginosa, C: C = concentration of comp. = 50,000 μL
Description: as §1

Escherichia coli = assay: as above; conditions: DMSO control zone subtracted; for inhibition zone, Escherichia coli, A: A = concentration of comp. = 10,000 μL; for inhibition zone, Escherichia coli, B: B = concentration of comp. = 30.000 μL; for inhibition zone, Escherichia coli, C: C = concentration of comp. = 50,000 μL
Description: as §1

Bacillus Cereus = assay: as above; conditions: DMSO control zone subtracted; for inhibition zone, Bacillus Cereus, A: A = concentration of comp. = 10,000 μL; for inhibition zone, Bacillus Cereus, B: B = concentration of comp. = 30.000 μL; for inhibition zone, Bacillus Cereus, C: C = concentration of comp. = 50,000 μL
Description: as §1

Staphylococcus aureus = assay: as above; conditions: DMSO control zone subtracted; for inhibition zone, Staphylococcus aureus, A: A = concentration of comp. = 10,000 μL; for inhibition zone, Staphylococcus aureus, B: B = concentration of comp. = 30.000 μL; for inhibition zone, Staphylococcus aureus, C: C = concentration of comp. = 50,000 μL
Description: as §1

Structure (SMILES) | inhibition zone, Chrysosporium keratinophilum, A [1] [mm] | inhibition zone, Chrysosporium keratinophilum, B [1] [mm] | inhibition zone, Chrysosporium keratinophilum, C [1] [mm] | inhibition zone, Aspergillus flavus, A (Aspergillus flavus) [mm] | inhibition zone, Aspergillus flavus, B (Aspergillus flavus) [mm] | inhibition zone, Aspergillus flavus, C (Aspergillus flavus) [mm] | inhibition zone, Pseudomonas aeruginosa, A (Pseudomonas aeruginosa) [mm] | inhibition zone, Pseudomonas aeruginosa, B (Pseudomonas aeruginosa) [mm] | inhibition zone, Pseudomonas aeruginosa, C (Pseudomonas aeruginosa) [mm] | inhibition zone, Escherichia coli, A (Escherichia coli) [mm] | inhibition zone, Escherichia coli, B (Escherichia coli) [mm] | inhibition zone, Escherichia coli, C (Escherichia coli) [mm] | inhibition zone, Bacillus Cereus, A (Bacillus Cereus) [mm] | inhibition zone, Bacillus Cereus, B (Bacillus Cereus) [mm] | inhibition zone, Bacillus Cereus, C (Bacillus Cereus) [mm] | inhibition zone, Staphylococcus aureus, A (Staphylococcus aureus) [mm] | inhibition zone, Staphylococcus aureus, B (Staphylococcus aureus) [mm] | inhibition zone, Staphylococcus aureus, C (Staphylococcus aureus) [mm]
CCOc1nc(-c2ccncc2)cc(-c2cccnc2)c1C#N [Compound 4, 2-ethoxy[4,3:6,4-terpyridine]-3-carbonitrile] | 26 | 31 | 39 | 30 | 34 | 41 | 28 | 34 | 41 | 33 | 41 | 49 | 27 | 34 | 39 | 19 | 23 | 33
COc1nc(-c2ccncc2)cc(-c2cccnc2)c1C#N [Compound 5, 2-methoxy[4,3:6,4-terpyridine]-3-carbonitrile] | 27 | 30 | 46 | 19 | 24 | 30 | 26 | 32 | 40 | 32 | 39 | 42 | 32 | 36 | 41 | 23 | 28 | 37
